Assay [1] in a line: clinical trial, indirect calorimetry (energy expenditure and substrate oxidation). Conditions: for energy expenditure compared to placebo / fat oxidation compared to placebo: healthy men, time standardized AUC after ingestion; for energy expenditure compared to placebo: single ingestion in 200 ml tomato juice (1 mg capsaicin, 70 mg cinnamaldehyde, 200 μl CF); for fat oxidation compared to placebo: single ingestion in 200 ml tomato juice; for higher post-prandial fat oxidation compared to placebo, magnitude: over the period of the experiment (90 min), capsaicin 1 mg/200 ml, cinnamaldehyde 70 mg/200 ml. The format is in vivo, human. As to the method:
Participants. Participants were healthy men with 19<BMI<25 and 60 kg minimum body weight. The age was in the 20-50 range. Participants had to like spicy food but are moderate spicy food eaters. Screening of candidates was done through a questionnaire on spicy food habits. The clinical trial we approved by a competent ethics committee (Commission cantonale (VD) d'Etique pour recherché sur l'Etre Humain) and participants gave their written informed consent. This trial was conducted according to the principles and rules laid down in the Declaration of Helsinki and its subsequent amendments. The presented study was a double-blinded, balanced, randomized, cross-over, placebo-controlled clinical trial. For each measure, the subjects had tested after an over-night fast. They had been requested to use their car or public transportation to come to the investigation site in order to keep morning physical activity level as low as possible. Moreover, consumption of caffeine was not permitted after the lunch meal (12 p.m.) before each session, and participants had been asked to refrain their spice consumption for two days prior each session. Each sample was evaluated in two different sessions A and B, with the same design but different recordings (FIG. 1A). Each session started at 8:00 a.m. with a 30 minutes rest period and measurement preparation. During all the testing sessions, subjects were seated comfortably. Room temperature was in the 20 to 22° C. range. Subjects were instructed to remain quiet and still, but they were allowed to watch TV. Parameters were recorded 30 minutes before and 90 minutes after ingestion of each sample (FIG. 1A). Treatment. All active TRP agonists were in 200 ml liquid tomato juice ([…]) at room temperature and served with a slice of bread. Placebo was 200 ml Commercial tomato juice. Active ingredients per 200 ml were 1 mg of Capsaicin (Spectrum chemicals), 0.2 ml of Givaudan cooling flavor (QB-113-979-5) or 70 mg of Cinnamaldehyde (Sigma). All ingredients were in vitro validated in cell lines expressing hTRPV1, hTRPA1 or hTRPM8 according to the calcium imaging method described in Riera et al, 2009 (FIG. 2). Energy expenditure was measured using indirect calorimetry. Indirect calorimetry is a measure of respiratory gas exchange (oxygen consumption and carbon dioxide production), which estimates the amount of calories “burned.” This measurement was performed with the MAX-II device (Max II metabolic system, AEI technologies, Naperville, Ill., USA). The equation used by the MAX-II device to evaluate energy expenditure is the simplified Weir formula: REE=(3.941×VO2)+(1.106×VCO2), where: After answering questions from the compliance questionnaire, participants were comfortably installed in semi-recumbent position in a reclining bed, at an angle allowing the participant to ingest the test solution without having to adjust position between metabolic rate measurement periods and treatment ingestion. A canopy was installed over participant's head. Test started 08:30 a.m. following a stabilization period allowing FeCO2 values to reach physiologic range. Substrate oxidation (carbohydrates and fat utilization) and the respiratory quotient (RQ) were calculated using the VO2 and VCO2 values obtained from the MAX-II device during the same timeline than energy expenditure. VO2 and VCO2 values were corrected for protein oxidation. The following equations were used to calculate the amount of fat and carbohydrates oxidized (Dietary Reference Intakes for Energy, Carbohydrate, Fiber, Fat, Fatty Acids, Cholesterol, Protein, and Amino Acids (Macronutrients) (2002/2005) National Academies Press, pp. 633-645): All endpoints have been analyzed using a linear mixed model to take into account the correlation between repeated measures. […]

Assay [2] can be described thus: clinical trial, facial thermography with infrared camera. Format: in vivo, human. Also on record: AUC Difference of the temperature vs placebo: unit not given beside the values. Particulars: for nose temperature after intake: Zone-2 (nose), over the 15 minutes post-ingestion, FIG. 4A; for cheek temperature after intake: Zone-12 (cheeks), immediately after intake, FIG. 4B. As for the experimental part: Participants. Participants were healthy men with 19<BMI<25 and 60 kg minimum body weight. The age was in the 20-50 range. Participants had to like spicy food but are moderate spicy food eaters. Screening of candidates was done through a questionnaire on spicy food habits. The clinical trial we approved by a competent ethics committee (Commission cantonale (VD) d'Etique pour recherché sur l'Etre Humain) and participants gave their written informed consent. This trial was conducted according to the principles and rules laid down in the Declaration of Helsinki and its subsequent amendments.
The presented study was a double-blinded, balanced, randomized, cross-over, placebo-controlled clinical trial. For each measure, the subjects had tested after an over-night fast. They had been requested to use their car or public transportation to come to the investigation site in order to keep morning physical activity level as low as possible. Moreover, consumption of caffeine was not permitted after the lunch meal (12 p.m.) before each session, and participants had been asked to refrain their spice consumption for two days prior each session. Each sample was evaluated in two different sessions A and B, with the same design but different recordings (FIG. 1A).
Each session started at 8:00 a.m. with a 30 minutes rest period and measurement preparation. During all the testing sessions, subjects were seated comfortably. Room temperature was in the 20 to 22° C. range. Subjects were instructed to remain quiet and still, but they were allowed to watch TV. Parameters were recorded 30 minutes before and 90 minutes after ingestion of each sample (FIG. 1A).
Treatment. All active TRP agonists were in 200 ml liquid tomato juice (Granini) at room temperature and served with a slice of bread. Placebo was 200 ml Commercial tomato juice. Active ingredients per 200 ml were 1 mg of Capsaicin (Spectrum chemicals), 0.2 ml of Givaudan cooling flavor (QB-113-979-5) or 70 mg of Cinnamaldehyde (Sigma). All ingredients were in vitro validated in cell lines expressing hTRPV1, hTRPA1 or hTRPM8 according to the calcium imaging method described in Riera et al, 2009 (FIG. 2).
Facial thermography. In this study, infrared thermal imaging of the face has been used as an exploratory, non-invasive recording method of sympathetic nervous system activity. Using a FLIR A325 infrared camera (FLIR Systems, Inc) subjects were continuously recorded at a distance of ˜1 m. They were comfortably installed in a chair with the head maintained fixed on a chin-rest support, to facilitate the further image analysis. Room temperature was in the 20 to 22° C. range. The camera FLIR A325 is equipped with a 25° lens, resolution is 320×240 pixels, and sensitivity is 0.05° C. and accuracy±2° C. The recording was performed by acquiring 1 image/second. Thermographic imaging software, FLIR ResearchIR is used to acquire images.
Facial thermography data were extracted using in-home algorithms developed within the Matlab framework (The Mathworks Inc., Natick, Mass., USA). First, a graphical user interface (GUI) was created to help defining manually a temperature threshold highlighting primarily subject's faces. An alignment of the face was then computed and twelve regions of interest (ROIs) drawn manually using the GUI (FIG. 1B). Face alignment/orientation correction was computed image by image by first creating a binary mask using the manually set temperature threshold. Holes in the binary mask were filled and the region with the greatest continuous area was selected. The selected region centroid was determined using the built-in Matlab region properties tool (regionprops). With the same tool, an ellipse was fitted within the region to obtain the angular orientation of the ellipse's major axis compared to the x-axis. […]

The conditions of assay [3]: literature (Ludy et al. 2011); cited from earlier work.
Another assay has as its target T1, hTRPA1 (Homo sapiens, UniProt O75762).
T1 construct: expressed in transfected cells
Kind of assay: in vitro validation in cell lines expressing hTRPA1, calcium imaging. Format: cell-based. Conditions: human TRPA1, in vitro, data not shown. As for the experimental part:
Treatment. All active TRP agonists were in 200 ml liquid tomato juice ([…]) at room temperature and served with a slice of bread. Placebo was 200 ml Commercial tomato juice. Active ingredients per 200 ml were 1 mg of Capsaicin (Spectrum chemicals), 0.2 ml of Givaudan cooling flavor (QB-113-979-5) or 70 mg of Cinnamaldehyde (Sigma). All ingredients were in vitro validated in cell lines expressing hTRPV1, hTRPA1 or hTRPM8 according to the calcium imaging method described in Riera et al, 2009 (FIG. 2). The objective of this trial was to assess if the stimulation of TRPA1 and TRPM8 pathways could be as efficient at impacting the energy balance as is the simulation of TRPV1 by capsaicin or capsiate. Based on the literature, we selected the most representative TRPA1 agonist: cinnamaldehyde activating specifically the mouse variant of TRPA1 with an EC50 of 60 μM, its specificity on the human form of the receptor has been confirmed in vitro (data not shown). In order to identify an efficient and specific agonist of hTRPM8, different ingredients with cooling properties have been evaluated in vitro. A cooling flavor (CF) provided by Givaudan, activating specifically hTRPM8 with an EC50 of 0.07% (FIG. 2) has been selected. As a positive control, capsaicin was evaluated in parallel to cinnamaldehyde and CF in this trial.

Another assay concerns the target mouse variant of TRPA1 (Mus musculus, UniProt Q8BLA8). Conditions: mouse variant of TRPA1, based on the literature; cited from earlier work.
The mark [4] stands for this setting: Zone 1, all period post ingestion.
[5] abbreviates: Zone 2 (nose), all period post ingestion.
Setting [6] is: Zone 3, all period post ingestion.
The mark [7] stands for this setting: Zone 4, all period post ingestion.
[8] abbreviates: Zone 5, all period post ingestion.
Where [9] appears, read: Zone 6, all period post ingestion.
Setting [10] is: Zone 7, all period post ingestion.
The mark [11] stands for this setting: Zone 8, all period post ingestion.
[12] abbreviates: Zone 9, all period post ingestion.
[13] abbreviates: Zone 10 (chin), all period post ingestion.
Where [14] appears, read: Zone 11, all period post ingestion.
The mark [15] stands for this setting: Zone 12 (cheeks), all period post ingestion.

Entries after “also recorded” stand apart in the source; their conditions may differ.

The text below walks through data of US20170367588A1, “METHODS USING FACIAL TEMPERATURE TO EVALUATE POST-INGESTIVE IMPACT OF FOOD INGREDIENTS ON FAT OXIDATION” (NESTEC S.A., priority 2014, published 2017).

T1 sequence (O75762 whole entry): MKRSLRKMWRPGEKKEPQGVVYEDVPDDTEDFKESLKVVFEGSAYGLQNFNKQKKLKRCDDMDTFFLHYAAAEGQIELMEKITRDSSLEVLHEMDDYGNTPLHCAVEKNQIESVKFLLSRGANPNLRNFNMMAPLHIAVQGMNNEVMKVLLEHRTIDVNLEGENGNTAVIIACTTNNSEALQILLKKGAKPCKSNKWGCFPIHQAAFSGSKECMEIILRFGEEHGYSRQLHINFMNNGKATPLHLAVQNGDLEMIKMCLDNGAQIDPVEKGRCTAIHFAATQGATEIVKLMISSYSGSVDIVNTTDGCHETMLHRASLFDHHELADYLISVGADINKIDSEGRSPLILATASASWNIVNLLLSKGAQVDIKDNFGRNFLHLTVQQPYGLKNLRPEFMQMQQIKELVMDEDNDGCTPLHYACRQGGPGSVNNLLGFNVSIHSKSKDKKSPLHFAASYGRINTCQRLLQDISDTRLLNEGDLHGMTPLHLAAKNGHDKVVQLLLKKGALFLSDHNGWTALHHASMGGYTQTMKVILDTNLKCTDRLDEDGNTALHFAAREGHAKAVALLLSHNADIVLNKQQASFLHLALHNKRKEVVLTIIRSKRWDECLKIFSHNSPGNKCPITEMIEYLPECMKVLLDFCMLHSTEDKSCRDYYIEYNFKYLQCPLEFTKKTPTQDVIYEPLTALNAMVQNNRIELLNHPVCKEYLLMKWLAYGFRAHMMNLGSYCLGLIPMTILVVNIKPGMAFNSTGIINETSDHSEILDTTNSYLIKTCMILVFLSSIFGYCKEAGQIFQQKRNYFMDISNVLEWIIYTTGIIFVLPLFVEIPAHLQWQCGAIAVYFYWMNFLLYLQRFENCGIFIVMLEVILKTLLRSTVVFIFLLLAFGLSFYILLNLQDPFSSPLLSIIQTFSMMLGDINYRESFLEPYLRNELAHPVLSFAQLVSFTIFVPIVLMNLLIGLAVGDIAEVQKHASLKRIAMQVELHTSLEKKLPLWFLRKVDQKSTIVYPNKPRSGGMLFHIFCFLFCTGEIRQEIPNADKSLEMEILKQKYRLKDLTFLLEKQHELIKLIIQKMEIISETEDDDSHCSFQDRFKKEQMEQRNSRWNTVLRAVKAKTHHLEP

With `COc1cc(CNC(=O)CCCC/C=C/C(C)C)ccc1O` [capsaicin], the “energy expenditure compared to placebo” value in assay [1] was “no significant differences”. Also, the “fat oxidation compared to placebo” value in assay [1] is listed as “higher level of fat oxidation”. For the same molecule, the “higher post-prandial fat oxidation compared to placebo, magnitude” value in assay [1] was “about 556.2 mg”. Besides, the “AUC Difference of the temperature vs placebo” value (“AUC Difference” for short) in assay [2] (setting [4]) is reported as 18.584; in assay [2] (setting [5]) it was 54.439; in assay [2] (setting [6]), 16.959; in assay [2] (setting [7]) it was 14.893; in assay [2] (setting [8]), 8.126; in assay [2] (setting [9]) it was 13.186. In addition, the “AUC Difference” value in assay [2] (setting [10]) worked out at 9.255; in assay [2] (setting [11]) it was 12.469; in assay [2] (setting [12]), 26.056; in assay [2] (setting [13]), 25.26; in assay [2] (setting [14]), 3.299; in assay [2] (setting [15]), 22.575. For the same molecule, the “nose temperature after intake” value in assay [2] was “significant increase; also recorded: increase nose temperature”. Further, the “efficient doses for increasing energy expenditure and fat oxidation” value in assay [3] is given as not below 20 mg.

The term EC50 denotes the concentration at which the effect is half-maximal. Turning to `O=CC=Cc1ccccc1` [cinnamaldehyde], the “specificity on the human form of the receptor” value at hTRPA1 is “confirmed”. For the same molecule, in assay [1], the “energy expenditure compared to placebo” value is “increases energy expenditure”. Moreover, the “fat oxidation compared to placebo” value in assay [1] is given as “higher level of fat oxidation”. For the same molecule, the “higher post-prandial fat oxidation compared to placebo, magnitude” value in assay [1] is listed as approximately 512.7 mg. Besides, the “AUC Difference” value in assay [2] (setting [4]) turned out to be 22.396; in assay [2] (setting [5]), 42.064; in assay [2] (setting [6]) it was 30.816; in assay [2] (setting [7]), 22.118; in assay [2] (setting [8]), 14.065; in assay [2] (setting [9]), 21.144. Also, the “AUC Difference” value was 18.856 in assay [2] (setting [10]); 18.384 in assay [2] (setting [11]); 18.947 in assay [2] (setting [12]); 34.072 in assay [2] (setting [13]); 18.237 in assay [2] (setting [14]); 26.571 in assay [2] (setting [15]). Further, the “nose temperature after intake” value in assay [2] was “significant increase; also recorded: increase nose temperature”. The “chin temperature compared to placebo” value in assay [2] (Zone-10 (chin), prolonged time after ingestion, adjusted p-value 0.0486) was “increases chin temperature”. The “cheek temperature after intake” value is reported as “increases unilaterally cheek temperature” in assay [2] and “increased temperature” in assay [2] (listed as Cinnamaldehyde). Further, on mouse variant of TRPA1, the half-maximal effective concentration (EC50) was 60 µM.
